Data from patent US20040038862A1, “Identification of new therapeutic targets for modulating bile acid synthesis” (priority 2003, published 2004).
“Also recorded” adds a separate entry of the source.

Experiments:
CYP7A expression [1] = test: CYP7A expression in primary human hepatocytes (Northern blot); type: cell-based; settings: 48 hours; GW4064 0.1-10 μM, chenodeoxycholic acid 1-100 μM
Method: (§1) Primary human hepatocytes and rat hepatocytes (1.5×10^6 cells) were cultured on […]-coated six well plates in serum-free Williams' E medium supplemented with 100 nM dexamethasone, 100 U/ml penicillin G, 100 μg/ml streptomycin, and insulin-transferrin-selenium (ITS-G, Life Technologies, Inc., Gaithersburg, Md.). […] Control cultures received vehicle alone. Cells were cultured for a further 48 hours prior to harvest and total RNA isolated using a commercially available reagent (Trizol, Life Technologies Inc., Gaithersburg, Md.) according to the manufacturer's instructions. Total RNA (10 μg) was resolved on a 1% agarose/2.2 M formaldehyde denaturing gel and transferred to a nylon membrane (Hybond N+, Amersham Pharmacia Biotech Inc., Piscataway, N.J.). Blots were hybridized with ^32p-labeled cDNAs corresponding to human SHP-1, human CYP7A (bases 99 to 1564, GenBank M93133), mouse SHP-1 (bases 30 to 783, GenBank L76567), or rat CYP7A (bases 235 to 460, GenBank J05460). The SHP-1 cDNA used in these experiments encodes the full-length human SHP-1 protein (amino acids 1-260) as described in Seol et al. (1996 Science 272:1336), Subsequently, blots were stripped and reprobed with a radiolabeled -actin cDNA (Clontech, Palo Alto, Calif.).

SHP-1 expression [2] = test: SHP-1 expression in primary human hepatocytes (Northern blot); type: cell-based; settings: 48 hours; GW4064 0.1-10 μM, chenodeoxycholic acid 1-100 μM
Method: Control cultures received vehicle alone. Cells were cultured for a further 48 hours prior to harvest and total RNA isolated using a commercially available reagent (Trizol, Life Technologies Inc., Gaithersburg, Md.) according to the manufacturer's instructions. Total RNA (10 μg) was resolved on a 1% agarose/2.2 M formaldehyde denaturing gel and transferred to a nylon membrane (Hybond N+, Amersham Pharmacia Biotech Inc., Piscataway, N.J.). Blots were hybridized with ^32p-labeled cDNAs corresponding to human SHP-1, human CYP7A (bases 99 to 1564, GenBank M93133), mouse SHP-1 (bases 30 to 783, GenBank L76567), or rat CYP7A (bases 235 to 460, GenBank J05460). The SHP-1 cDNA used in these experiments encodes the full-length human SHP-1 protein (amino acids 1-260) as described in Seol et al. (1996 Science 272:1336), Subsequently, blots were stripped and reprobed with a radiolabeled -actin cDNA (Clontech, Palo Alto, Calif.).

rodent FXR = target: T1, rodent FXR (Mus musculus, UniProt Q60641); test: FXR transactivation in transfected CV-1 cells, hsp70 ecdysone receptor response element reporter; type: cell-based
T1 construct: expressed in transfected cells; host or cells: CV-1
T1 sequence (Q60641 1-488): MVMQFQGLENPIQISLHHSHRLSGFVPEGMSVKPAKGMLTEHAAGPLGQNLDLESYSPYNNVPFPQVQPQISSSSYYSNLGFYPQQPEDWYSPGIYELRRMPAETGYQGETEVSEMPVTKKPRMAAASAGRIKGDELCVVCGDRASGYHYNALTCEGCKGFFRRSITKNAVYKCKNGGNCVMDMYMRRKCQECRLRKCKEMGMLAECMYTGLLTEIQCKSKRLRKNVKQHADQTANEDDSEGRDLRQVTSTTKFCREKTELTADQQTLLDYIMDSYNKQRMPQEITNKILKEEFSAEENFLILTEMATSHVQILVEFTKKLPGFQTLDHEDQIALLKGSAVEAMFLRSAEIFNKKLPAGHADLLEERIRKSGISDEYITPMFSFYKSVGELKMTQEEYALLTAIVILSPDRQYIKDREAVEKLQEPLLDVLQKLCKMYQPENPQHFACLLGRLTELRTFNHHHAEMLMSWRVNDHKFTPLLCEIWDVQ
Excerpt: The full-length coding regions for human LRH-1 (GenBank AB019246) and human SHP-1 (GenBank L76571) were amplified by PCR and cloned into pSG5, creating pSG5-hLRH-1 and pSG5-hSHP-1, respectively. A consensus Kozak sequence was created during amplification. […] Underlined residues are those which have been mutated from the wild-type sequence. […] VP16-nuclear receptor chimeras contained the 80-amino acid herpes virus VP16 transactivation domain linked to the nuclear receptor ligand binding domain in a modified pSG5 expression vector.
Transient transfection of CV-1 cells was performed as described previously (Jones, S. A. et al. 2000. Mol. Endocrinol. 14:27-39). Typically, transfection mixes contained 2-5 ng receptor expression vector, 20 ng reporter construct, and 8 ng p -actin-SPAP. The amount of DNA used in each transfection was adjusted to 80 ng with carrier plasmid (pBluescript, Stratagene, La Jolla, Calif.). Cells were maintained for 24 hours in the presence of drug (added as a 1000× stock in dimethyl sulfoxide) in DMEM/F-12 nutrient mixture containing 10% charcoal-stripped, delipidated calf serum. An aliquot of medium was assayed for SPAP activity and the cells lysed prior to determination of luciferase expression. Luciferase activities were normalized to SPAP. […]

CYP7A expression [3] = test: Liver CYP7A expression in treated rats; type: in vivo, rat; settings: 30 mg/kg by gavage twice a day for 7 days
Method: This decrease was still measurable despite the fact that the animals had been maintained on a normal light cycle and sacrificed during the daytime when CYP7A levels are known to be quite low.
(§2) Male Fisher rats were obtained from Charles River Laboratories Inc. (Raleigh, N.C.) and maintained on a 12 hour light/12 hour dark cycle. Animals were allowed food and chow ad libitum. […] Livers were excised and snap-frozen in liquid nitrogen. Differential gene expression analysis was performed by Curagen Corp. (New Haven, Conn.).

SHP-1 expression [4] = test: Liver SHP-1 expression in treated rats; type: in vivo, rat; settings: 30 mg/kg by gavage twice a day for 7 days
Method: Direct regulation of SHP-1 by FXR was confirmed in experiments in HepG2 cells transfected with an FXR expression plasmid and reporter plasmids under the control of either the rat or human SHP-1 promoter.
as §2

SHP-1 expression [5] = test: SHP-1 expression in primary rat hepatocytes (Northern blot); type: cell-based; settings: 48 hours; GW4064 0.1-10 μM
Method: as §1

rat SHP-1 promoter = test: SHP-1 promoter reporter in HepG2 cells transfected with FXR expression plasmid; type: cell-based
human SHP-1 promoter = test: as above; type: cell-based

EC50 (rodent FXR) [nM]	SMILES	CYP7A expression in human hepatocytes (CYP7A expression [1])	SHP-1 expression in human hepatocytes (SHP-1 expression [2])	CYP7A expression levels versus vehicle treated rats (CYP7A expression [3])	SHP-1 expression in liver RNA versus vehicle-treated rats (SHP-1 expression [4])	SHP-1 expression in rat hepatocytes (SHP-1 expression [5])	reporter activity, rat SHP-1 promoter (rat SHP-1 promoter)	reporter activity, human SHP-1 promoter (human SHP-1 promoter)
	C[C@H](CCC(=O)O)[C@H]1CC[C@H]2[C@@H]3[C@H](O)C[C@@H]4C[C@H](O)CC[C@]4(C)[C@H]3CC[C@]12C [chenodeoxycholic acid, reference compound]	repressed CYP7A expression at the same concentrations that were required for induction of SHP-1 expression	much less potent than GW4064					
80	CC(C)c1onc(-c2c(Cl)cccc2Cl)c1COc1ccc(/C=C/c2cccc(C(=O)O)c2)c(Cl)c1 [GW4064]	decrease CYP7A expression in a dose dependent fashion; also recorded: repressed CYP7A expression at the same concentrations that were required for induction of SHP-1 expression	markedly increased SHP-1 expression in a dose-dependent manner	decrease in CYP7A expression levels	six-fold increase	markedly increased SHP-1 expression in a dose-dependent manner	marked induction of reporter activity	marked induction of reporter activity
